Measured values as given in patent publication US5252559A, “His-Gly-Gly peptide and derivatives thereof for hair growth” (The Procter & Gamble Company, priority 1991, dated 1993).
Peptide text beside a SMILES is read from it.

Tested on: male C3H mice
Assay: C3H Mouse Model, topical study of hair growth
Format: in vivo
Description: The effect of the compounds of the present invention on hair growth is assessed using male C3H mice (Harlan Sprague Dawley, Inc., Indianapolis, Ind.) as an animal model. The mice are 52 days old at the time of first does. They are individually housed in "shoe box" cages (Scientific Products, Chicago, Ill.). Ten mice are used per test group.
Not more than four hours before treatment, the animals are anesthetized with an intraperitoneal mixture of acepromazine maleate (1.6 mg/kg), xylazine (4.8 mg/kg) and ketamine hydrochloride (64 mg/kg) dosed in a saline vehicle in a total volume of 0.2 ml per 25 g mouse. The entire back of the animal is clipped closely with a small animal clipper (Wahl model 8900, Wahl Clipper Corp., Sterling, Ill.). […]
On days of photography, the animals are photographed prior to dosing. […] Results are expressed as the percent of shaved area responding with anagen skin, and the percent of shaved area responding with hair growth.
A positive response, i.e., an increase of greater than 10% over control, indicates the potential of the test compound to regulate hair growth. Accordingly, when hair growth peptides as herein defined, are assessed either individually or in combination as a test compound in the C3H Mouse Model, an increase over control of at least 10%, preferably 40%, more preferably 70%, after four weeks treatment will be obtained. […]

## N[C@@H](Cc1c[nH]cn1)C(=O)NCC(=O)NCC(=O)O [His-Gly-Gly, Histidyl-glycyl-glycine] (H-His-Gly-Gly-OH)
topical, 1.0% in Tris buffer/propylene glycol/glycerine (67/30/3, pH 8.0) vehicle, after 4 weeks of treatment, mean of 10 mice
  mean percent of shaved area that is covered with hair at Day 25: 44.3%
Versus vehicle control, Day 25, topical 1.0%
  increase in hair growth: 96%
